Results reported in ChEMBL document CHEMBL4052714, “Synthesis and antibacterial activity of novel 4″-O-(1-aralkyl-1,2,3-triazol-4-methyl-carbamoyl) azithromycin analogs” (2017).
In brackets after ≈: the same amount, converted by molar mass.

What was measured:
Type in all cases: functional
Streptococcus pneumoniae [1] = assay: Antibacterial activity against erythromycin-resistant Streptococcus pneumoniae AB11 expressing ermB/mefA gene
Streptococcus pneumoniae [2] = assay: Antibacterial activity against erythromycin-resistant Streptococcus pneumoniae B1 expressing ermB gene
Staphylococcus aureus [3] = assay: Antibacterial activity against methicillin-susceptible Staphylococcus aureus ATCC 29213
Streptococcus pneumoniae [4] = assay: Antibacterial activity against erythromycin-susceptible Streptococcus pneumoniae ATCC 49619
Pseudomonas aeruginosa = assay: Antibacterial activity against Pseudomonas aeruginosa ATCC 27853
Streptococcus pyogenes [5] = assay: Antibacterial activity against erythromycin-susceptible Streptococcus pyogenes isolate S2
Streptococcus pyogenes [6] = assay: Antibacterial activity against erythromycin-resistant Streptococcus pyogenes isolate R2
Escherichia coli = assay: Antibacterial activity against Escherichia coli ATCC 25922
Staphylococcus aureus [7] = assay: Antibacterial activity against erythromycin-susceptible Staphylococcus aureus ATCC 25923
Streptococcus pneumoniae [8] = assay: Antibacterial activity against erythromycin-resistant Streptococcus pneumoniae A22072 expressing mefA gene

Compound `CC[C@H]1OC(=O)[C@H](C)[C@@H](O[C@H]2C[C@@](C)(OC)[C@@H](OC(=O)NCc3cn(Cc4c(Cl)cccc4Cl)nn3)[C@H](C)O2)[C@H](C)[C@@H](O[C@@H]2O[C@H](C)C[C@H](N(C)C)[C@H]2O)[C@](C)(O)C[C@@H](C)CN(C)[C@H](C)[C@@H](OC(=O)NCc2ccccc2)[C@]1(C)O` has an MIC (Streptococcus pneumoniae [1]) of 0.25 µg/mL (≈ 0.215 µM), an MIC (Streptococcus pneumoniae [2]) of 0.25 µg/mL (≈ 0.215 µM) and an MIC (Staphylococcus aureus [3]) of 16 µg/mL (≈ 13.7 µM). For the same compound, the MIC (Streptococcus pneumoniae [4]) was 0.125 µg/mL (≈ 0.107 µM), the MIC (Pseudomonas aeruginosa) was 32 µg/mL (≈ 27.5 µM) and the MIC (Streptococcus pyogenes [5]) was < 0.002 µg/mL. The MIC (Streptococcus pyogenes [6]) was 64 µg/mL (≈ 54.9 µM), the MIC (Escherichia coli) was 32 µg/mL (≈ 27.5 µM) and the MIC (Staphylococcus aureus [7]) was 0.25 µg/mL (≈ 0.215 µM). For the same compound, the MIC (Streptococcus pneumoniae [8]) was 0.25 µg/mL (≈ 0.215 µM).

`CC[C@H]1OC(=O)[C@H](C)[C@@H](O[C@H]2C[C@@](C)(OC)[C@@H](OC(=O)NCc3cn(Cc4ccc(Cl)cc4Cl)nn3)[C@H](C)O2)[C@H](C)[C@@H](O[C@@H]2O[C@H](C)C[C@H](N(C)C)[C@H]2O)[C@](C)(O)C[C@@H](C)CN(C)[C@H](C)[C@H]2OC(=O)O[C@@]21C` showed an MIC (Streptococcus pneumoniae [1]) of 2 µg/mL (≈ 1.89 µM), an MIC (Streptococcus pneumoniae [2]) of 4 µg/mL (≈ 3.78 µM) and an MIC (Staphylococcus aureus [3]) of 32 µg/mL (≈ 30.2 µM). It also gave an MIC (Streptococcus pneumoniae [4]) of 1 µg/mL (≈ 0.945 µM), an MIC (Pseudomonas aeruginosa) of 64 µg/mL (≈ 60.5 µM) and an MIC (Streptococcus pyogenes [5]) of 0.125 µg/mL (≈ 0.118 µM). For the same compound, the MIC (Streptococcus pyogenes [6]) was 32 µg/mL (≈ 30.2 µM), the MIC (Escherichia coli) was 128 µg/mL (≈ 121 µM) and the MIC (Staphylococcus aureus [7]) was 4 µg/mL (≈ 3.78 µM). The MIC (Streptococcus pneumoniae [8]) was 1 µg/mL (≈ 0.945 µM).

`CC[C@H]1OC(=O)[C@H](C)[C@@H](O[C@H]2C[C@@](C)(OC)[C@@H](OC(=O)NCc3cn(C4CCCCC4)nn3)[C@H](C)O2)[C@H](C)[C@@H](O[C@@H]2O[C@H](C)C[C@H](N(C)C)[C@H]2O)[C@](C)(O)C[C@@H](C)CN(C)[C@H](C)[C@H]2OC(=O)O[C@@]21C` showed an MIC (Streptococcus pneumoniae [1]) of 4 µg/mL (≈ 4.08 µM), an MIC (Streptococcus pneumoniae [2]) of 8 µg/mL (≈ 8.15 µM) and an MIC (Staphylococcus aureus [3]) of 64 µg/mL (≈ 65.2 µM). The MIC (Streptococcus pneumoniae [4]) was 1 µg/mL (≈ 1.02 µM), the MIC (Pseudomonas aeruginosa) was 64 µg/mL (≈ 65.2 µM) and the MIC (Streptococcus pyogenes [5]) was 0.25 µg/mL (≈ 0.255 µM). It also gave an MIC (Streptococcus pyogenes [6]) of 32 µg/mL (≈ 32.6 µM), an MIC (Escherichia coli) of 128 µg/mL (≈ 130 µM) and an MIC (Staphylococcus aureus [7]) of 16 µg/mL (≈ 16.3 µM). The MIC (Streptococcus pneumoniae [8]) was 1 µg/mL (≈ 1.02 µM).

Work on `CC[C@H]1OC(=O)[C@H](C)[C@@H](O[C@H]2C[C@@](C)(OC)[C@@H](OC(=O)NCc3cn(Cc4cccc(F)c4)nn3)[C@H](C)O2)[C@H](C)[C@@H](O[C@@H]2O[C@H](C)C[C@H](N(C)C)[C@H]2O)[C@](C)(O)C[C@@H](C)CN(C)[C@H](C)[C@H]2OC(=O)O[C@@]21C` yielded an MIC (Streptococcus pneumoniae [1]) of 0.5 µg/mL (≈ 0.496 µM), an MIC (Streptococcus pneumoniae [2]) of 4 µg/mL (≈ 3.97 µM) and an MIC (Staphylococcus aureus [3]) of 32 µg/mL (≈ 31.8 µM). It also gave an MIC (Streptococcus pneumoniae [4]) of 1 µg/mL (≈ 0.993 µM), an MIC (Pseudomonas aeruginosa) of 64 µg/mL (≈ 63.5 µM) and an MIC (Streptococcus pyogenes [5]) of 0.125 µg/mL (≈ 0.124 µM). The MIC (Streptococcus pyogenes [6]) was 128 µg/mL (≈ 127 µM), the MIC (Escherichia coli) was 128 µg/mL (≈ 127 µM) and the MIC (Staphylococcus aureus [7]) was 4 µg/mL (≈ 3.97 µM). The MIC (Streptococcus pneumoniae [8]) was 4 µg/mL (≈ 3.97 µM).

`CC[C@H]1OC(=O)[C@H](C)[C@@H](O[C@H]2C[C@@](C)(OC)[C@@H](OC(=O)NCc3cn(Cc4ccc([N+](=O)[O-])cc4)nn3)[C@H](C)O2)[C@H](C)[C@@H](O[C@@H]2O[C@H](C)C[C@H](N(C)C)[C@H]2O)[C@](C)(O)C[C@@H](C)CN(C)[C@H](C)[C@H]2OC(=O)O[C@@]21C` was tested, and the MIC (Streptococcus pneumoniae [1]) was 0.5 µg/mL (≈ 0.483 µM), the MIC (Streptococcus pneumoniae [2]) was 4 µg/mL (≈ 3.87 µM) and the MIC (Staphylococcus aureus [3]) was 32 µg/mL (≈ 30.9 µM). It also gave an MIC (Streptococcus pneumoniae [4]) of 1 µg/mL (≈ 0.967 µM), an MIC (Pseudomonas aeruginosa) of 64 µg/mL (≈ 61.9 µM) and an MIC (Streptococcus pyogenes [5]) of 0.008 µg/mL (≈ 0.00774 µM). The MIC (Streptococcus pyogenes [6]) was 128 µg/mL (≈ 124 µM), the MIC (Escherichia coli) was 64 µg/mL (≈ 61.9 µM) and the MIC (Staphylococcus aureus [7]) was 4 µg/mL (≈ 3.87 µM). For the same compound, the MIC (Streptococcus pneumoniae [8]) was 4 µg/mL (≈ 3.87 µM).

Compound `CC[C@H]1OC(=O)[C@H](C)[C@@H](O[C@H]2C[C@@](C)(OC)[C@@H](OC(=O)NCc3cn(Cc4ccc(Br)cc4)nn3)[C@H](C)O2)[C@H](C)[C@@H](O[C@@H]2O[C@H](C)C[C@H](N(C)C)[C@H]2O)[C@](C)(O)C[C@@H](C)CN(C)[C@H](C)[C@H]2OC(=O)O[C@@]21C` has an MIC (Streptococcus pneumoniae [1]) of 1 µg/mL (≈ 0.936 µM), an MIC (Streptococcus pneumoniae [2]) of 4 µg/mL (≈ 3.74 µM) and an MIC (Staphylococcus aureus [3]) of 32 µg/mL (≈ 30 µM). It also gave an MIC (Streptococcus pneumoniae [4]) of 1 µg/mL (≈ 0.936 µM), an MIC (Pseudomonas aeruginosa) of 64 µg/mL (≈ 59.9 µM) and an MIC (Streptococcus pyogenes [5]) of 0.06 µg/mL (≈ 0.0562 µM). It also gave an MIC (Streptococcus pyogenes [6]) of 32 µg/mL (≈ 30 µM), an MIC (Escherichia coli) of 128 µg/mL (≈ 120 µM) and an MIC (Staphylococcus aureus [7]) of 2 µg/mL (≈ 1.87 µM). For the same compound, the MIC (Streptococcus pneumoniae [8]) was 1 µg/mL (≈ 0.936 µM).

In the case of `CC[C@H]1OC(=O)[C@H](C)[C@@H](O[C@H]2C[C@@](C)(OC)[C@@H](OC(=O)NCc3cn(Cc4ccccc4Cl)nn3)[C@H](C)O2)[C@H](C)[C@@H](O[C@@H]2O[C@H](C)C[C@H](N(C)C)[C@H]2O)[C@](C)(O)C[C@@H](C)CN(C)[C@H](C)[C@H]2OC(=O)O[C@@]21C`, the MIC (Streptococcus pneumoniae [1]) was 4 µg/mL (≈ 3.91 µM), the MIC (Streptococcus pneumoniae [2]) was 8 µg/mL (≈ 7.82 µM) and the MIC (Staphylococcus aureus [3]) was 32 µg/mL (≈ 31.3 µM). The MIC (Streptococcus pneumoniae [4]) was 1 µg/mL (≈ 0.977 µM), the MIC (Pseudomonas aeruginosa) was 64 µg/mL (≈ 62.5 µM) and the MIC (Streptococcus pyogenes [5]) was 0.06 µg/mL (≈ 0.0586 µM). For the same compound, the MIC (Streptococcus pyogenes [6]) was 16 µg/mL (≈ 15.6 µM), the MIC (Escherichia coli) was 128 µg/mL (≈ 125 µM) and the MIC (Staphylococcus aureus [7]) was 4 µg/mL (≈ 3.91 µM). The MIC (Streptococcus pneumoniae [8]) was 2 µg/mL (≈ 1.95 µM).

In the case of `CC[C@H]1OC(=O)[C@H](C)[C@@H](O[C@H]2C[C@@](C)(OC)[C@@H](OC(=O)NCc3cn(Cc4ccccc4)nn3)[C@H](C)O2)[C@H](C)[C@@H](O[C@@H]2O[C@H](C)C[C@H](N(C)C)[C@H]2O)[C@](C)(O)C[C@@H](C)CN(C)[C@H](C)[C@@H](OC(=O)NCc2ccccc2)[C@]1(C)O`, the MIC (Streptococcus pneumoniae [1]) was 0.25 µg/mL (≈ 0.228 µM), the MIC (Streptococcus pneumoniae [2]) was 0.25 µg/mL (≈ 0.228 µM) and the MIC (Staphylococcus aureus [3]) was 16 µg/mL (≈ 14.6 µM). The MIC (Streptococcus pneumoniae [4]) was 0.125 µg/mL (≈ 0.114 µM), the MIC (Pseudomonas aeruginosa) was 32 µg/mL (≈ 29.2 µM) and the MIC (Streptococcus pyogenes [5]) was < 0.002 µg/mL. The MIC (Streptococcus pyogenes [6]) was 32 µg/mL (≈ 29.2 µM), the MIC (Escherichia coli) was 16 µg/mL (≈ 14.6 µM) and the MIC (Staphylococcus aureus [7]) was 0.016 µg/mL (≈ 0.0146 µM). The MIC (Streptococcus pneumoniae [8]) was 0.25 µg/mL (≈ 0.228 µM).

Work on `CC[C@H]1OC(=O)[C@H](C)[C@@H](O[C@H]2C[C@@](C)(OC)[C@@H](OC(=O)NCc3cn(Cc4ccc(Cl)cc4)nn3)[C@H](C)O2)[C@H](C)[C@@H](O[C@@H]2O[C@H](C)C[C@H](N(C)C)[C@H]2O)[C@](C)(O)C[C@@H](C)CN(C)[C@H](C)[C@@H](OC(=O)NCc2ccccc2)[C@]1(C)O` yielded an MIC (Streptococcus pneumoniae [1]) of 0.25 µg/mL (≈ 0.221 µM), an MIC (Streptococcus pneumoniae [2]) of 0.25 µg/mL (≈ 0.221 µM) and an MIC (Staphylococcus aureus [3]) of 16 µg/mL (≈ 14.1 µM). The MIC (Streptococcus pneumoniae [4]) was 0.25 µg/mL (≈ 0.221 µM), the MIC (Pseudomonas aeruginosa) was 32 µg/mL (≈ 28.3 µM) and the MIC (Streptococcus pyogenes [5]) was < 0.002 µg/mL. The MIC (Streptococcus pyogenes [6]) was 32 µg/mL (≈ 28.3 µM), the MIC (Escherichia coli) was 32 µg/mL (≈ 28.3 µM) and the MIC (Staphylococcus aureus [7]) was 0.25 µg/mL (≈ 0.221 µM). It also gave an MIC (Streptococcus pneumoniae [8]) of 0.125 µg/mL (≈ 0.111 µM).
